Each structure is given as a SMILES string. pKi: −log10 of the molar value.

Data on one compound can be found in PMC6920875, “Dithiocarbamate as a Valuable Scaffold for the Inhibition of Metallo-β-Lactmases” (Biomolecules, 2019).

In test [1] the target is T1, ImiS (Aeromonas veronii, UniProt O31272).
T1 construct: made in house; host or cells: E. coli BL21 (DE3), plasmid pET-26b-ImiS
As to the kind of experiment: biochemical. Also noted: species or system Aeromonas veronii bv. sobria. The following applies: read-out: inhibition against ImiS. The protocol: (§1) The dithiocarbamates, MβLs and substrates samples were prepared with 30 mM Tris, pH 7.0. […] Enzymes and inhibitors were pre-incubated for 5 min before adding substrate. […] The IC50 values were nonlinearly fitted by plotting the average percentage inhibition against inhibitor concentration. The inhibition modes of DC1 to ImiS, NDM-1 and L1 were assayed by generating Lineweaver–Burk plots, and Ki values were obtained by fitting initial velocity versus substrate concentration at each inhibitor concentration, using SigmaPlot 12.0 (Systat Software Inc., San Jose, CA, USA).
To evaluate the inhibitory activity of the dithiocarbamates, we over-expressed and purified MβLs NDM-1, VIM-2 and IMP-1 (B1), ImiS (B2), and L1 (B3) from three subclasses as previously reported. The inhibition experiments were performed with an Agilent UV8453 spectrometer. […] The concentrations of inhibitors were varied between 0 and 200 μM. The initial reaction rates were determined in the absence and presence of inhibitors in triplicate, and the generated average values were recorded.

The target of test [2] is T1, ImiS. As to the kind of experiment: Isothermal titration calorimetry (ITC) of MβL-catalysed substrate hydrolysis. Format: biochemical, Aeromonas veronii bv. sobria. The following applies: 100 nM enzyme, 1 mM imipenem, inhibitor 0-200 μM, 25 °C. The protocol: (§2) Isothermal titration calorimetry (ITC) assays were performed on a Malvern MicroCal iTC 200 instrument (Malvern Instruments, Malvern, UK) at 25 °C, by a single injection mode. During ITC experiments the reference cell was filled with degassed water. The MβLs, substrates, and inhibitor DC1 were prepared with 50 mM Tris, pH 7.0. The concentration of MβLs used was in the range 100–200 nM, concentration of substrate was 1 mM, and concentrations of DC1 were varied between 0 and 200 µM. Before starting the measurement, the enzyme was pre-incubated with different concentrations of DC1 for 5 min, and then delivered into the sample cell (210 µL). The hydrolysis reaction in the absence of inhibitors was also determined as a control. The stirring rate of the syringe was set to 750 rpm. The system was equilibrated at the desired 25 °C. […] Heat flow was recorded as a function of time. Data were collected every 1 s until the signal reached the baseline and continued to be recorded for the length of time necessary to generate the final baseline.
(§3) Isothermal titration calorimetry (ITC) was also employed, to identify the inhibition of the dithiocarbamates on MβLs and study their thermodynamic behaviour. […]
For orientation: Isothermal titration calorimetry measures the heat released or taken up as one component is titrated into another.

For test [3], the target named is T2, L1 (Stenotrophomonas maltophilia, UniProt P52700).
T2 construct: made in house; host or cells: E. coli BL21 (DE3), plasmid pET-26b-L1
The description is as above. The following applies: 100 nM enzyme, 1 mM cefazolin, inhibitor 0-200 μM, 25 °C. Format: biochemical. Here is the method:
as §2, §3

Test [4] addresses T3, NDM-1 (Klebsiella pneumoniae, UniProt C7C422).
T3 construct: made in house; host or cells: E. coli BL21 (DE3), plasmid pET26b-NDM-1
Described as above. Type of test: biochemical. The following applies: 150 nM enzyme, 1 mM cefazolin, inhibitor 0-200 μM, 25 °C. The protocol:
as §2, §3

Test [5] concerns the target T3, NDM-1. As to the kind of experiment: Time-dependence inhibition experiment, residual activity. Type of test: biochemical. To be noted: 13 nM NDM-1 incubated with inhibitor at its IC50 for 8 h.
For test [6], the target named is T2, L1. The test is described as follows: Inhibitor reversibility, activity recovery after rapid 100-fold dilution. The following applies: 5.8 μM enzyme, 25.3 μM inhibitor, 10 min pre-incubation. Format: biochemical. The protocol:
(§4) It can be observed in Figure 4d–f that the Q value remains almost unchanged in the presence or absence of inhibitors, likely because the formation of the enzyme-inhibitor complex (EI), that slowed down substrate hydrolysis, was reversible. […] We assayed the binding reversibility of DC1 to MβLs by measuring the enzymatic activity recovery after a large, rapid dilution of the MβL-DC1 complex.
(§5) Determination of inhibitor reversibility
(§6) NDM-1, ImiS and L1 were incubated at a concentration of 1.3, 5.0 and 5.8 μM, which is 100-fold over the concentration required for the activity assay, with DC1 at a concentration of 1.5, 0.7 and […]
(§7) After 10 minutes pre-incubation, the recovery of enzymatic activity was determined after rapid and large dilution (100-fold) with the reaction […]
(§8) Figure S2. Recovery of NDM-1 (a), ImiS (b) and L1 (c) activity after rapid dilution of the enzyme-inhibitor complex. The curve in black refers to the control sample pre-incubated and diluted in the absence of inhibitor. Curves in red refer to MβLs pre-incubated with DC1. […]

The target of test [7] is T3, NDM-1. Described as above. Type of test: biochemical. To be noted: 1.3 μM enzyme, 10 min pre-incubation. The protocol: as §4, §5, §6, §7, §8
Test [8] has as its target T2, L1. As to the kind of experiment: Inhibition kinetics, Lineweaver–Burk plots. Format: biochemical. Here is the method: as §1
(§9) To further identify the inhibition mode of the DCs against MβLs, we performed inhibition kinetics of NDM-1, ImiS and L1 by DC1, at different concentrations, with different substrate concentrations. […] Enzyme and inhibitors were pre-incubated for 5 min before starting the kinetic assays. All experimental hydrolytic rates of substrates were determined in triplicate. The inhibition mode of dithiocarbamates on MβLs was identified by generating Lineweaver–Burk plots, and Ki values were gained by fitting the initial velocity versus substrate concentration at each inhibitor concentration, using SigmaPlot 12.0.

Test [9] has as its target T3, NDM-1. The test is described as follows: Inhibition kinetics, Lineweaver–Burk plots. Format: biochemical. The protocol:
as §1, §9

T2 sequence (P52700 34-290): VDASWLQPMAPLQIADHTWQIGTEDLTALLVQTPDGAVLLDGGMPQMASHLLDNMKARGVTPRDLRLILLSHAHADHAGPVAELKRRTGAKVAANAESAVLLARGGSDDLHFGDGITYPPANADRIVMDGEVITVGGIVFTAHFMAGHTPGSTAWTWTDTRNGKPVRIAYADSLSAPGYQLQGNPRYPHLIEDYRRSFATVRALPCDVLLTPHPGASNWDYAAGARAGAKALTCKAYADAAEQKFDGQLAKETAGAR
T3 sequence (C7C422 29-270 limits assumed): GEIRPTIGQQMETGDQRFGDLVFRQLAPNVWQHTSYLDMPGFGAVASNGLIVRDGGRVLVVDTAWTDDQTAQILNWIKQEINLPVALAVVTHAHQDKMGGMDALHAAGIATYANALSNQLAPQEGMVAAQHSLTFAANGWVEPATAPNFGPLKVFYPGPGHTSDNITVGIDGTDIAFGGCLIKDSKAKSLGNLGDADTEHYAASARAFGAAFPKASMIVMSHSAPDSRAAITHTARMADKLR
T1 sequence (O31272 28-255 limits assumed): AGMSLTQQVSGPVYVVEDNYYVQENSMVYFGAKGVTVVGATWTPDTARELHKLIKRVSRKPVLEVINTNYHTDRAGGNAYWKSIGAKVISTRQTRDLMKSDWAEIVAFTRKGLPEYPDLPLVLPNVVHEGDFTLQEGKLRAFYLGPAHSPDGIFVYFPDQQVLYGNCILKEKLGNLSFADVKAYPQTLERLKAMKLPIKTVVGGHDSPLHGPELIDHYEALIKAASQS

What is called inhibition is the relative decrease from the control value, in per cent. The term pKi denotes the negative decadic logarithm of the Ki, by convention in mol/L. As for `O=C(NNC(=S)[S][K])c1ccccc1O` [DC1], in [1], the inhibition at 40 µM is greater than 90%. Moreover, in test [2], the “reversibility of inhibition of ImiS by ITC (total heat Q constant)” value is “reversible”. Moreover, the “reversibility of inhibition of L1 by ITC (total heat Q constant)” value in test [3] is “reversible”. In addition, in [4], the “reversibility of inhibition of NDM-1 by ITC (total heat Q constant)” value is “reversible”. Further, the “time dependence of NDM-1 inhibition (residual activity)” value in test [5] is “no time-dependent inhibition”. In addition, the “reversibility, recovery of L1 activity after rapid dilution” value in test [6] is recorded as “reversible inhibitor”. Also, the “reversibility, recovery of NDM-1 activity after rapid dilution” value in test [7] is “reversible inhibitor”. For the same compound, the “inhibition mode against L1” value in test [8] (Lineweaver–Burk plots) is given as “partially mixed inhibition”. Moreover, the pKi in [8] (read-out: Ki against L1, cefazolin 20-120 µM, inhibitor 0-20 μM, SigmaPlot fit) is 5.30; in [9] (read-out: Ki against NDM-1, cefazolin 20-120 µM, inhibitor 0-20 μM, SigmaPlot fit), 6.54. The “inhibition mode against NDM-1” value in [9] (Lineweaver–Burk plots) was “partially mixed inhibition”.
